Several values for one entry are separate records, joined by “and”; a condition that tells them apart may be missing. Equal values may be shown once. Toxic doses and inconclusive results are not listed.
System: BDF1 mice, P388 leukemia ip, median survival T/C
Test: NCI In Vivo Anticancer Drug Screen. Data for tumor model P388 Leukemia (intraperitoneal) in B6D2F1 (BDF1) mice
Details: endpoint: median survival time, higher = longer survival
Procedure, shortened: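 Read-out is survival of treated animals expressed relative to the vehicle group, as a T/C ratio.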

[1] = dose: 100.0 mg/kg/injection, schedule: Q01DX009 (ip), vehicle: saline with Tween-80
[2] = dose: 100.0 mg/kg/injection, schedule: Q01DX009 (ip), vehicle: Klucel (hydroxypropylcellulose) (HPC)
[3] = dose: 200.0 mg/kg/injection, schedule: Q01DX009 (ip), vehicle: Klucel (hydroxypropylcellulose) (HPC)
[4] = dose: 100.0 mg/kg/injection, schedule: Q01DX009 (ip), vehicle: saline
[5] = dose: 100.0 mg/kg/injection, schedule: Q04DX003 (ip), vehicle: saline
[6] = dose: 200.0 mg/kg/injection, schedule: Q01DX009 (ip), vehicle: saline
[7] = dose: 200.0 mg/kg/injection, schedule: Q04DX003 (ip), vehicle: saline
[8] = dose: 400.0 mg/kg/injection, schedule: Q04DX003 (ip), vehicle: saline
[9] = dose: 6.25 mg/kg/injection, schedule: Q01DX009 (ip), vehicle: saline
[10] = dose: 12.5 mg/kg/injection, schedule: Q01DX009 (ip), vehicle: saline
[11] = dose: 25.0 mg/kg/injection, schedule: Q01DX009 (ip), vehicle: saline
[12] = dose: 50.0 mg/kg/injection, schedule: Q01DX009 (ip), vehicle: saline
[13] = dose: 6.25 mg/kg/injection, schedule: Q01DX009 (ip), vehicle: Klucel (hydroxypropylcellulose) (HPC)
[14] = dose: 12.5 mg/kg/injection, schedule: Q01DX009 (ip), vehicle: Klucel (hydroxypropylcellulose) (HPC)
[15] = dose: 50.0 mg/kg/injection, schedule: Q04DX003 (ip), vehicle: Klucel (hydroxypropylcellulose) (HPC)
[16] = dose: 100.0 mg/kg/injection, schedule: Q04DX003 (ip), vehicle: Klucel (hydroxypropylcellulose) (HPC)
[17] = dose: 200.0 mg/kg/injection, schedule: Q04DX003 (ip), vehicle: Klucel (hydroxypropylcellulose) (HPC)
[18] = dose: 400.0 mg/kg/injection, schedule: Q01DX009 (ip), vehicle: Klucel (hydroxypropylcellulose) (HPC)
[19] = dose: 400.0 mg/kg/injection, schedule: Q04DX003 (ip), vehicle: Klucel (hydroxypropylcellulose) (HPC)
[20] = dose: 50.0 mg/kg/injection, schedule: Q01DX009 (ip), vehicle: saline with Tween-80
[21] = dose: 50.0 mg/kg/injection, schedule: Q04DX003 (ip), vehicle: saline with Tween-80
[22] = dose: 100.0 mg/kg/injection, schedule: Q04DX003 (ip), vehicle: saline with Tween-80
[23] = dose: 12.5 mg/kg/injection, schedule: Q04DX003 (ip), vehicle: saline

CCC(=O)O[C@H]1CC[C@H]2[C@@H]3[C@@H](C)CC4=CC(=O)CC[C@]4(C)[C@H]3CC[C@]12C
T/C [1]: 105 % of control | T/C (dose: 200.0 mg/kg/injection, schedule: Q01DX009 (ip), vehicle: saline with Tween-80): 95 % of control | T/C (dose: 400.0 mg/kg/injection, schedule: Q01DX009 (ip), vehicle: saline with Tween-80): 95 % of control

COc1cc2cc3c4cc(OC)c(OC)cc4cc[n+]3cc2cc1OC
T/C (dose: 5.0 mg/kg/injection, schedule: Q01DX009 (ip), vehicle: saline with Tween-80): 109 % of control | T/C (dose: 10.0 mg/kg/injection, schedule: Q01DX009 (ip), vehicle: saline with Tween-80): 118 % of control | T/C (dose: 40.0 mg/kg/injection, schedule: Q01DX009 (ip), vehicle: saline with Tween-80): 159 % of control | T/C (dose: 40.0 mg/kg/injection, schedule: Q04DX003 (ip), vehicle: saline): 163 % of control | T/C (dose: 80.0 mg/kg/injection, schedule: Q04DX003 (ip), vehicle: saline): 174 % of control | T/C (dose: 160.0 mg/kg/injection, schedule: Q01DX009 (ip), vehicle: saline with Tween-80): 154 % of control | T/C (dose: 160.0 mg/kg/injection, schedule: Q04DX003 (ip), vehicle: saline with Tween-80): 154 % of control | T/C (dose: 160.0 mg/kg/injection, schedule: Q04DX003 (ip), vehicle: saline): 166 % of control | T/C (dose: 320.0 mg/kg/injection, schedule: Q04DX003 (ip), vehicle: saline with Tween-80): 122 % of control | T/C (dose: 320.0 mg/kg/injection, schedule: Q04DX003 (ip), vehicle: saline): 120 % of control

COc1cc2c(c(OC)c1OC)CCC1(C)C(=O)NN=C21 (stereo not drawn)
T/C [2]: 108 % of control | T/C [3]: 106 % of control

CCN(CC)C(=O)Cn1cc(F)c(N)nc1=O
T/C [4]: 95 % of control | T/C [5]: 110 % of control | T/C [6]: 90 % of control | T/C [7]: 100 % of control | T/C [8]: 100 % of control

CCOC(=S)SCc1nc2ccccc2[nH]1
T/C [5]: 90 % of control | T/C [7]: 107 % of control | T/C [8]: 105 % of control

CCOC(=O)c1c(N)ssc1=S
T/C [9]: 101 % of control | T/C [10]: 113 % of control | T/C [11]: 100 % of control | T/C [12]: 111 % of control | T/C [4]: 113 % of control | T/C [5]: 112 % of control | T/C [6]: 93 % of control and 104 % of control | T/C [7]: 86 % of control | T/C (dose: 300.0 mg/kg/injection, schedule: Q01DX009 (ip), vehicle: saline): 91 % of control

COc1ccc(C(=O)OCCN(CCN(CCOC(=O)c2ccc(OC)cc2)C(=O)c2ccc(OC)cc2)C(=O)c2ccc(OC)cc2)cc1
T/C [13]: 95 % of control | T/C [14]: 95 % of control | T/C (dose: 25.0 mg/kg/injection, schedule: Q04DX003 (ip), vehicle: Klucel (hydroxypropylcellulose) (HPC)): 91 % of control | T/C [15]: 90 % of control | T/C [16]: 96 % of control | T/C [17]: 91 % of control

COc1ccccc1NC(=O)c1ccc(Cl)cc1
T/C [2]: 100 % of control | T/C [16]: 100 % of control | T/C [3]: 100 % of control | T/C [17]: 100 % of control | T/C [18]: 104 % of control | T/C [19]: 109 % of control

O=C(Nc1cccc2ccccc12)C(F)(F)F
T/C (dose: 12.5 mg/kg/injection, schedule: Q01DX009 (ip), vehicle: saline with Tween-80): 109 % of control | T/C (dose: 25.0 mg/kg/injection, schedule: Q01DX009 (ip), vehicle: saline with Tween-80): 104 % of control | T/C (dose: 25.0 mg/kg/injection, schedule: Q04DX003 (ip), vehicle: saline with Tween-80): 91 % of control | T/C [20]: 100 % of control | T/C [21]: 99 % of control | T/C [1]: 118 % of control | T/C [22]: 90 % of control and 103 % of control

CCN(CC)c1c(C)nnc2c(-c3ccccc3)nnn12
T/C [21]: 97 % of control | T/C [22]: 100 % of control | T/C (dose: 200.0 mg/kg/injection, schedule: Q04DX003 (ip), vehicle: saline with Tween-80): 97 % of control

C=C=[CH][Sn]([c]1ccccc1)([c]1ccccc1)[c]1ccccc1
T/C [13]: 92 % of control and 108 % of control | T/C [14]: 96 % of control and 104 % of control | T/C (dose: 25.0 mg/kg/injection, schedule: Q01DX009 (ip), vehicle: Klucel (hydroxypropylcellulose) (HPC)): 107 % of control and 112 % of control and 115 % of control

Cc1ccc(C(=S)NC(=O)NS(C)(=O)=O)cc1
T/C (dose: 100.0 mg/kg/injection, schedule: Q01DX001 (ip), vehicle: saline with Tween-80): 106 % of control | T/C (dose: 200.0 mg/kg/injection, schedule: Q01DX001 (ip), vehicle: saline with Tween-80): 105 % of control | T/C (dose: 400.0 mg/kg/injection, schedule: Q01DX001 (ip), vehicle: saline with Tween-80): 99 % of control

C1CC[N-]CC1.C1CC[N-]CC1.C1CC[N-]CC1.C1CC[N-]CC1.[Cl][Rh][Cl]
T/C [23]: 118 % of control

Cc1cc([N+](=O)[O-])cc(C)c1OC(=O)c1ccc(N=C(N)N)cc1
T/C [9]: 93 % of control | T/C [10]: 101 % of control | T/C [23]: 104 % of control | T/C [11]: 97 % of control | T/C (dose: 25.0 mg/kg/injection, schedule: Q04DX003 (ip), vehicle: saline): 102 % of control | T/C [12]: 95 % of control | T/C (dose: 50.0 mg/kg/injection, schedule: Q04DX003 (ip), vehicle: saline): 101 % of control | T/C [5]: 95 % of control

COc1cc(/C=N/NC(=O)c2ccncc2)cc(OC)c1OC
T/C [16]: 104 % of control | T/C [3]: 122 % of control | T/C [17]: 109 % of control | T/C [18]: 122 % of control | T/C [19]: 100 % of control

O=C(O)CCSc1ccccc1
T/C (dose: 50.0 mg/kg/injection, schedule: Q01DX009 (ip), vehicle: Klucel (hydroxypropylcellulose) (HPC)): 90 % of control | T/C [15]: 95 % of control | T/C [2]: 100 % of control | T/C [16]: 100 % of control | T/C [3]: 109 % of control | T/C [17]: 100 % of control

COc1cc2c3c(c1O)C1(C=CC(=O)C=C1)CC3N(C)CC2 (stereo not drawn)
T/C [20]: 112 % of control | T/C [1]: 115 % of control

CCC1(O)CC2CN(CCc3c([nH]c4ccccc34)C(C(=O)OC)(c3cc4c(cc3OC)N(C)C3C(O)(C(N)=O)C(O)C5(CC)C=CCN6CCC43C65)C2)C1 (stereo not drawn) (tested in a mixture with another compound)
T/C (dose: 0.65 mg/kg/injection, schedule: Q04DX003 (ip), vehicle: saline): 188 % of control | T/C (dose: 0.87 mg/kg/injection, schedule: Q04DX003 (ip), vehicle: saline): 154 % of control | T/C (dose: 1.08 mg/kg/injection, schedule: Q04DX003 (ip), vehicle: saline): 223 % of control | T/C (dose: 1.3 mg/kg/injection, schedule: Q04DX003 (ip), vehicle: saline): 187 % of control | T/C (dose: 1.8 mg/kg/injection, schedule: Q04DX003 (ip), vehicle: saline): 238 % of control | T/C (dose: 2.0 mg/kg/injection, schedule: Q04DX003 (ip), vehicle: saline): 163 % of control | T/C (dose: 3.0 mg/kg/injection, schedule: Q04DX003 (ip), vehicle: saline): 101 % of control | T/C (dose: 500.0 micrograms/kg/injection, schedule: Q04DX003 (ip), vehicle: saline): 175 % of control | T/C (dose: 648.0 micrograms/kg/injection, schedule: Q04DX003 (ip), vehicle: saline): 203 % of control | T/C (dose: 1000.0 micrograms/kg/injection, schedule: Q04DX003 (ip), vehicle: saline): 250 % of control | T/C (dose: 1080.0 micrograms/kg/injection, schedule: Q04DX003 (ip), vehicle: saline): 237 % of control | T/C (dose: 1800.0 micrograms/kg/injection, schedule: Q04DX003 (ip), vehicle: saline): 237 % of control | T/C (dose: 2000.0 micrograms/kg/injection, schedule: Q04DX003 (ip), vehicle: saline): 211 % of control | T/C (dose: 4000.0 micrograms/kg/injection, schedule: Q04DX003 (ip), vehicle: saline): 96 % of control

OCCc1ccccc1
T/C (dose: 100.0 mg/kg/injection, schedule: Q01DX009 (ip), vehicle: saline sonified): 100 % of control | T/C (dose: 200.0 mg/kg/injection, schedule: Q01DX009 (ip), vehicle: saline sonified): 100 % of control

Source: PubChem BioAssay AID328 (DTP/NCI, 2004)
